Row | melting point [°C] | SMILES
1 | 214 to 217 | Cc1cc2c(cc1C(F)(F)F)NC(=O)CC(c1cccc(-c3nc(CO)sc3C)c1)=N2
2 | 200 to 201 | CCOc1c(C#N)cnc2c(NC(=O)c3c(Cl)cccc3Cl)cccc12
3 | 55 to 56 | C=CCONC(CCC)=C1C(=O)CC(C2CCOCC2)CC1=O (stereo not drawn)
4 | 162 to 164 | COc1cc2c(cc1OC)/C(=C/c1cc(OC)c(OC)c(OC)c1)N(C(=O)C1CCCCC1)CC2
5 | 215 to 217 | COc1cccc2c(=O)[nH]ccc12
6 | 78 to 79 | CC1(C)CCC(C)(C)c2cc(C(=O)OCc3ccc(C(=O)OCc4ccccc4)cc3)ccc21
7 | 60 to 65 | CCCCc1nc2c(N)nc3cccnc3c2n1CCNC(=O)C(N)CC(C)C (stereo not drawn)
8 | 157 | CCC(Cc1c(I)cc(I)c(NC(=O)CCl)c1I)C(=O)O (stereo not drawn)
9 | 170 to 171 | CSc1nnc(-c2ccccc2Nc2c(Cl)ccc(C)c2Cl)o1
10 | 115 | OCCn1cc(-c2ccccc2)c(OCc2ccccc2)n1
11 | 75 to 76 | COC(=NS(=O)(=O)c1nc(-c2ccccc2Cl)ns1)C(C)C
12 | 77 to 78 | CC(=O)O[C@H]1CCCNC1=O
13 | 290 to 292 | Cc1nc2c(N)nc3c(c2n1CC(C)(C)O)CCCC3
14 | 98 to 101 | Oc1ccc(-c2cccc(Cl)c2)cc1
15 | 78 to 80 | CCOC(=O)C=C1CC(c2cccc(C3(c4ccc(OC(F)F)cc4)N=C(N)N(C)C3=O)c2)C1 (stereo not drawn)
16 | 125 to 128 | COC(=O)c1ccncc1C(=O)c1ccc(-n2ccnc2)cc1
17 | 208 to 211 | Cn1cnc2cc(NN)ccc2c1=O
18 | 200 to 201 | O=C(Nc1cccnn1)N1CCN(c2ccnc(-c3ccc(F)cc3F)n2)CC1
19 | 41 to 42 | O=C(c1ccc(Oc2ccc(C(F)(F)F)cc2Cl)cc1)C(Cl)Cl
20 | 71 to 72 | Cc1oc(C2CC2)nc1COc1ccc(CC(OC(C)C)C(=O)O)c2sccc12 (stereo not drawn)
21 | 202 to 204 | CC(C)(C)N(NC(=O)c1ccccc1)C(=O)C1CCCCC1
22 | 130 | Cc1nc2c(c(-c3cccc([N+](=O)[O-])c3)c1C(=O)OCCO)C(=O)OC2
23 | 75 to 77 | O=C(O)CCCCCCNS(=O)(=O)c1ccccc1
24 | 217 to 219 | Cn1cc(C2=C(c3cn4c5c(cccc35)CCC4)C(=O)OC2=O)c2ccccc21

Row | melting point [°C] | SMILES
25 | 224 to 226 | CC(=O)Nc1cccc(C(=O)CN2C=CSC2NC(C)=O)c1 (stereo not drawn)
26 | 158 to 159 | O=C(Nc1cc(C(F)(F)F)ccc1O)Nc1ccccc1C(F)(F)F
27 | 179 to 181 | NC1=Nc2ccccc2Cn2cccc21
28 | 196 to 198 | COC(=O)c1ccc(-c2n[nH]c(C)n2)cc1Cl
29 | 103 to 106 | CCN(CC)CC1(C)Cc2c(C)c(N3CCN(c4ccc(OC)cc4)CC3)c(C)c(C)c2O1 (stereo not drawn)
30 | 152 to 154 | CC1=C(Cl)C(=O)c2ccccc2C1=O
31 | 82 | CCc1ccc(N2CCOCC2)c(NC(C)=O)c1
32 | 100 to 102 | CC(C)(C)c1ccc(Oc2cccc(C(=O)NCCN(O)C(N)=O)c2)cc1
33 | 225 | CCc1ccccc1NC=C1C(=O)N(c2ccc(C(N)=O)cc2)N=C1C
34 | 54 to 57 | CN1C(=O)C(c2ccc(OC(F)F)cc2)(c2cccc(C(F)CCCF)c2)N=C1N (stereo not drawn)
35 | 130 to 132 | COC(=O)c1ccc(Nc2cccc3ccccc23)cc1
36 | 95 to 96 | COc1cc2c(cc1OCc1ccccc1)CCCCC2=O
37 | 190 | NC(=O)c1nccn1C1Cc2ccc(Cl)cc2C1=O (stereo not drawn)
38 | 171 to 173 | Cc1cc(Oc2ccc(NC(=O)N3CCc4ccccc4CC3)cn2)ccc1Cl
39 | 109 to 111 | Cc1c(Cl)c(Oc2c(Cl)cc(C(F)(F)F)cc2Cl)nn1C(=O)NC(C)C
40 | 189 to 191 | CCCCCc1cc2c(nc(O)n2CCCNC(C)=O)c(N)n1
41 | 247 to 248 | CCc1cnc2c(NC(=O)c3c(Cl)cccc3Cl)cccc2c1C(N)=O
42 | 204 | CS(=O)(=O)C(=C1CN(C(c2ccccc2)c2ccccc2)C1)c1cc(Cl)cc(Cl)c1
43 | 155 to 156 | O=S(=O)(NCCCOc1cccc2nccn12)c1ccccc1
44 | 112 to 113 | CCCn1c(=Nc2ccc([N+](=O)[O-])cc2)sc2ncccc2c1=O
45 | 134 to 138 | Cc1cccc(-c2nc(-c3ccc(S(C)(=O)=O)cc3)sc2-c2ccnc(C)c2)c1
46 | 166 to 169 | Cc1ccc(Cn2c(=O)c3c(Cl)cc(Cl)cc3n(Cc3ccccc3)c2=O)cc1
47 | 74.5 to 76 | CCOc1cccnc1CO
48 | 103 to 108 | CCNC(=O)CC(Cc1cccc2ccccc12)C(=O)NC(Cc1c[nH]cn1)C(=O)NC(CC(C)C)C(O)C(=O)OC (mixture of isomers)

Row | melting point [°C] | SMILES
49 | 141 to 142 | CC(CS)C(=O)N1C(C(=O)O)CC2CCCCC21 (stereo not drawn)
50 | 106 to 107 | Cc1oc(-c2ccccc2)nc1COc1cccc([N+](=O)[O-])c1
51 | 213 to 215 | NS(=O)(=O)c1ccc(NC(=O)CNC2CCCCC2)c(Cl)c1
52 | 106 to 108 | CC(C(=O)O)c1ccc(Oc2ccccc2F)cc1 (stereo not drawn)
53 | 227 | O=C(O)c1ccc(COc2ccccc2-c2cc(O)c(SCCc3ccccc3)c(=O)o2)cc1
54 | 263 to 266 | O=C1OCCC23C(=CC=CC12)C1=C(C=C3c2ccc3c(c2)OCO3)OCO1 (stereo not drawn)
55 | 189 to 190 | COc1ncccc1OCC1(c2onc(-c3ccc(O)cc3)c2-c2ccccc2)CC1
56 | 218 to 220 | NS(=O)(=O)N1CCN(c2ccc(Cl)cc2)CC1
57 | 60 to 63.5 | C[Si](C)(C)C#Cc1ccc(O)cc1
58 | 198 to 201 | O=C(c1ccc([N+](=O)[O-])cc1)N1Cc2ccccc2Cc2cc(Cl)ccc21
59 | 57 to 60 | COCCNC(=O)c1ccc2c(c1)C=CC(C)(C)O2
60 | 169 to 170 | O=C(CCc1ccccc1)Nc1cc(-c2nnc(CCc3cccc(C(F)(F)F)c3)o2)ccn1
61 | 235 to 236 | Cc1ccc2nc(C3(c4ccc(S(N)(=O)=O)cc4)C=C(C(F)F)NN3)sc2c1 (stereo not drawn)
62 | 174 to 175 | CNc1cc(N2CCc3ccccc32)cc(C)n1
63 | 148 to 149 | C=CCOc1ccc(OCC)c2c1S(=O)(=O)N(Cc1ccccc1)C2=O
64 | 110 to 112 | CC1Cc2cccc(S(N)(=O)=O)c2N1 (stereo not drawn)
65 | 212 to 214 | CSc1nccc(CC(=O)c2ccc(F)cc2)n1
66 | 209 to 210 | COc1cc(NC(=O)Nc2ccc(N3CCN(C(=O)Nc4ccc(OCCO)cc4C(F)(F)F)CC3)cc2)cc(OC)c1
67 | 147 to 149 | COC(=O)c1ccc2c(c1)c(Cc1ccc(C(=O)Cl)cc1OC)cn2C
68 | 101 to 103 | O=C(CS(=O)(=O)c1ccccc1)c1ccccn1
69 | 185 | CC(=O)Nc1ccc(C=CC(=O)N2CCc3c([nH]c4ccccc34)C2c2ccc3c(c2)OCO3)cc1 (stereo not drawn)
70 | 163 to 165 | O=C1NCCN1C1CCC(NCC(O)COc2ccc(OCC3CC3)cc2)CC1 (stereo not drawn)
71 | 93 | CNc1cccc([N+](=O)[O-])c1N
72 | 82 to 83 | N#CCC(=O)Cc1cccc(C(F)(F)F)c1

Row | SMILES | melting point [°C]
73 | CN(C)C1(c2ccccc2)CCC(CNC(=S)NCCc2c[nH]c3ccccc23)CC1 (stereo not drawn) | 92 to 95
